From patent EP0019764A1, “Trans-3-(4'-tert.-butyl-cyclohexyl-1')-2-methyl-1-(3'-methylpiperidino, 3',5'-dimethylpiperidino and 2', 6'-dimethylmorpholino) propane, process for their pure preparation, antimycotic agents containing them and their utilisation” (BASF Aktiengesellschaft, priority 1979, dated 1980) come the findings set out here.

For one series, the system named is Microsporum gypseum. Kind of series: agar dilution test, minimal inhibitory concentration. It is filed as cell-based. The settings on record: Nannizzia gypsea; Stamm No 156/M; Agardilutionstest; read-out: MHK-Werte. The source says:
(§1) Die Wirkung gegenüber Mikroorganismen kann nach Methoden, wie sie beispielsweise in P. Klein, Bakteriologische Grundlagen der chemotherapeutischen Laboratoriumspraxis, Springer-Verlag Berlin, 1957, beschrieben sind, aufgezeigt werden.
(§2) Beispielsweise wurde geprüft, welche minimalen Hemmkonzentrationen (MHK-Werte) im Agardilutionstest gegen pathogene Pilze erreicht werden können.
(§3) In der folgenden Tabelle 1 sind die Ergebnisse zusammengefaßt: […]

Another series concerns Epidermophyton floccosum. The series is described as above. The following applies: Stamm No 157/M, Agardilutionstest, read-out: MHK-Werte. It is filed as cell-based.
Source text: as §1, §2, §3

The next series has as its system Trichophyton violaceum. The description is as above. The following applies: Stamm No 10/M, Agardilutionstest, read-out: MHK-Werte. It is filed as cell-based.
Source text: as §1, §2, §3

The test system of series [1] is Trichophyton mentagrophytes. The series is described as above. The following applies: Agardilutionstest, read-out: MHK-Werte. Type of series: cell-based.
Source text: as §1, §2, §3

A further series relates to Microsporum ferrugineum. The series is described as above. Type of series: cell-based. The following applies: Stamm No 5/M, Agardilutionstest, read-out: MHK-Werte.
Source text: as §1, §2, §3

Another series relates to Trichophyton rubrum. Described as above. It is filed as cell-based. The following applies: Stamm No 158/M, Agardilutionstest, read-out: MHK-Werte.
Source text: as §1, §2, §3

For series [2], the system named is Trichophyton schoenleinii. The description is as above. The settings on record: Stamm No 9/M, Agardilutionstest, read-out: MHK-Werte. It is filed as cell-based.
Source text: as §1, §2, §3

Another series deals with Microsporum canis. The description is as above. Type of series: cell-based. The following applies: Agardilutionstest, read-out: MHK-Werte.
Source text: as §1, §2, §3

For series [3], the system named is humanpathogenen Pilzen und Hefen aus dem Verwandtschaftskreis der Dermatophyten. Kind of series: inhibitory effect on microorganisms, trans compound compared with cis compound. Type of series: cell-based. The settings on record: compared with the respective cis compound; Hemmeffekte gegenüber Mikroorganismen. The source says: Aufgrund der überraschenden Feststellung, daß die reinen trans-Verbindungen gegenüber humanpathogenen Pilzen und Hefen aus dem Verwandtschaftskreis der Dermatophyten um das 10-fache und noch darüber hinaus stärker wirksam sind als die cis-Verbindungen, ist es eine Aufgabe der Erfindung, Verfahren zur Herstellung der reinen trans-Verbindungen (1) bis (3) zu entwickeln.
überraschenderweise sind die reinen trans-Verbindungen fast ausschließlich Träger der guten antimykotischen Wirkung. Verglichen mit der jeweiligen cis-Verbindung und bezogen auf die Hemmeffekte gegenüber Mikroorganismen, sind die trans-Verbindungen (1), (2) und (3) 10-fach und noch darüber hinaus stärker wirksam. Das bedeutet beispielsweise bei etwa gleichen Toxizitätswerten eine wesentliche Verbesserung der therapeutischen Breite.

Series [4] can be described thus: acute oral toxicity (LD50) in the mouse. The following applies: in vivo, Maus per os. The source says:
Aus diesen LD50-Werten ergibt sich für die topische und systemische Anwendung nach oraler Gabe eine genügend therapeutische Breite.

Converted amounts (≈) assume the structure as drawn. Like-named read-outs stand apart in the source and are kept apart here.

In the case of `CC(CN1C[C@@H](C)O[C@@H](C)C1)C[C@H]1CC[C@H](C(C)(C)C)CC1` (relative stereo) [(3) trans, trans-3-(4'-tert.-Butyl-cyclohexyl-1')-2-methyl-1--(2',6'-cis-dimethylmorpholino)-propan], the MIC with Microsporum gypseum was 0.0156 µg/mL (≈ 0.0504 µM); in the series with Epidermophyton floccosum, 0.0312 µg/mL (≈ 0.101 µM); with Trichophyton violaceum it was 0.0156 µg/mL (≈ 0.0504 µM); in series [1] (Stamm No 19/M), 0.0312 µg/mL (≈ 0.101 µM); in series [1] (Stamm No 21/M), 0.0625 µg/mL (≈ 0.202 µM); in series [1] (Stamm No 159/M) it was below 0.0078 µg/mL. Further, the MIC in series [1] (Stamm No 160/M) is 0.0625 µg/mL (≈ 0.202 µM); in [1] (Stamm No 170/M), 0.0156 µg/mL (≈ 0.0504 µM); in series [1] (Stamm No 171/M) it was 0.0156 µg/mL (≈ 0.0504 µM); in [1] (Stamm No 172/M), 0.0625 µg/mL (≈ 0.202 µM); in series [1] (Stamm No 173/M), 0.0625 µg/mL (≈ 0.202 µM); in series [1] (Stamm No 174/M), 0.0156 µg/mL (≈ 0.0504 µM). Moreover, the MIC was below 0.0078 µg/mL with Microsporum ferrugineum; 0.0625 µg/mL (≈ 0.202 µM) in the series on Trichophyton rubrum; 0.0156 µg/mL (≈ 0.0504 µM) in series [2]; 0.0312 µg/mL (≈ 0.101 µM) with Microsporum canis (Stamm No 155/M); 0.0312 µg/mL (≈ 0.101 µM) in the series on Microsporum canis (Stamm No 167/M); 0.0156 µg/mL (≈ 0.0504 µM) with Microsporum canis (Stamm No 168/M). For the same molecule, in the series with Microsporum canis (Stamm No 169/M), the MIC is 0.0312 µg/mL (≈ 0.101 µM). In addition, the “stärker wirksam als die cis-Verbindung” value in series [3] is recorded as at least 10 fach. In series [4], this molecule gave an LD50 of 2250 mg/kg.
For the molecule `CC1CC(C)CN(CC(C)C[C@H]2CC[C@H](C(C)(C)C)CC2)C1` (relative stereo) [(2) trans, trans-3-(4'-tert.-Butyl-cyclohexyl-1')-2-methyl-1-(3',5'--dimethyl-l'-piperidino)-propan], the MIC was 0.0312 µg/mL (≈ 0.101 µM) in the series with Microsporum gypseum; 0.0156 µg/mL (≈ 0.0507 µM) in the series on Epidermophyton floccosum; below 0.0078 µg/mL with Trichophyton violaceum; 0.0625 µg/mL (≈ 0.203 µM) in series [1] (Stamm No 19/M); 0.0312 µg/mL (≈ 0.101 µM) in series [1] (Stamm No 21/M); below 0.0078 µg/mL in series [1] (Stamm No 159/M). In addition, the MIC in series [1] (Stamm No 160/M) was 0.0312 µg/mL (≈ 0.101 µM); in series [1] (Stamm No 170/M) it was below 0.0078 µg/mL; in series [1] (Stamm No 171/M) it was below 0.0078 µg/mL; in series [1] (Stamm No 172/M), 0.0312 µg/mL (≈ 0.101 µM); in series [1] (Stamm No 173/M) it was 0.0312 µg/mL (≈ 0.101 µM); in [1] (Stamm No 174/M) it was 0.0156 µg/mL (≈ 0.0507 µM). Also, the MIC is below 0.0078 µg/mL in the series with Microsporum ferrugineum; 0.0312 µg/mL (≈ 0.101 µM) in the series on Trichophyton rubrum; 0.0156 µg/mL (≈ 0.0507 µM) in series [2]; 0.0312 µg/mL (≈ 0.101 µM) in the series with Microsporum canis (Stamm No 155/M); 0.0156 µg/mL (≈ 0.0507 µM) in the series with Microsporum canis (Stamm No 167/M); below 0.0078 µg/mL in the series with Microsporum canis (Stamm No 168/M). Further, the MIC in the series with Microsporum canis (Stamm No 169/M) was determined as 0.0312 µg/mL (≈ 0.101 µM). Also, in [3], the “stärker wirksam als die cis-Verbindung” value is listed as at least 10 fach. The molecule further gave an LD50 in [4] of 335 mg/kg.
Consider `CC1CCCN(CC(C)C[C@H]2CC[C@@H](C(C)(C)C)CC2)C1` (relative stereo) [(1) cis, cis- und trans-3-(4-tert.-Butyl-cyclohexyl-1)-2-methyl-1-(3'-methyl-1-piperidino)-propan], for which the MIC with Microsporum gypseum is 0.25 µg/mL (≈ 0.852 µM); in the series on Epidermophyton floccosum, 0.25 µg/mL (≈ 0.852 µM); in the series on Trichophyton violaceum, 0.0625 µg/mL (≈ 0.213 µM); in [1] (Stamm No 19/M), 0.5 µg/mL (≈ 1.7 µM); in series [1] (Stamm No 21/M), 0.25 µg/mL (≈ 0.852 µM); in [1] (Stamm No 159/M), 0.0312 µg/mL (≈ 0.106 µM). Also, the MIC in [1] (Stamm No 160/M) worked out at 0.25 µg/mL (≈ 0.852 µM); in series [1] (Stamm No 172/M) it was 0.5 µg/mL (≈ 1.7 µM); in [1] (Stamm No 173/M), 0.25 µg/mL (≈ 0.852 µM); in the series with Microsporum ferrugineum it was 0.0312 µg/mL (≈ 0.106 µM); in the series with Trichophyton rubrum it was 0.25 µg/mL (≈ 0.852 µM); with Microsporum canis (Stamm No 167/M) it was 0.25 µg/mL (≈ 0.852 µM). Besides, the MIC is 0.0625 µg/mL (≈ 0.213 µM) with Microsporum canis (Stamm No 168/M) and 0.5 µg/mL (≈ 1.7 µM) in the series on Microsporum canis (Stamm No 169/M).
With `CC1CCCN(CC(C)C[C@H]2CC[C@H](C(C)(C)C)CC2)C1` (relative stereo) [(1) trans, trans-3-(4'-tert.-Butyl-cyclohexyl-1')-2-methyl-1-(3'--methyl-1'-piperidino)-propan], the MIC worked out at 0.0156 µg/mL (≈ 0.0531 µM) in the series with Microsporum gypseum; 0.0312 µg/mL (≈ 0.106 µM) in the series on Epidermophyton floccosum; 0.0156 µg/mL (≈ 0.0531 µM) in the series with Trichophyton violaceum; 0.0312 µg/mL (≈ 0.106 µM) in series [1] (Stamm No 19/M); 0.0312 µg/mL (≈ 0.106 µM) in series [1] (Stamm No 21/M); 0.0078 µg/mL (≈ 0.0266 µM) in series [1] (Stamm No 159/M). Moreover, the MIC in [1] (Stamm No 160/M) was 0.0312 µg/mL (≈ 0.106 µM); in series [1] (Stamm No 170/M), 0.0156 µg/mL (≈ 0.0531 µM); in series [1] (Stamm No 171/M), 0.0156 µg/mL (≈ 0.0531 µM); in [1] (Stamm No 172/M) it was 0.0625 µg/mL (≈ 0.213 µM); in series [1] (Stamm No 173/M), 0.0312 µg/mL (≈ 0.106 µM); in [1] (Stamm No 174/M), 0.0312 µg/mL (≈ 0.106 µM). Moreover, the MIC worked out at 0.0078 µg/mL (≈ 0.0266 µM) in the series with Microsporum ferrugineum; 0.0312 µg/mL (≈ 0.106 µM) in the series with Trichophyton rubrum; 0.0625 µg/mL (≈ 0.213 µM) in [2]; 0.0156 µg/mL (≈ 0.0531 µM) in the series with Microsporum canis (Stamm No 155/M); 0.0312 µg/mL (≈ 0.106 µM) in the series with Microsporum canis (Stamm No 167/M); 0.0156 µg/mL (≈ 0.0531 µM) with Microsporum canis (Stamm No 168/M). Moreover, the MIC with Microsporum canis (Stamm No 169/M) was found to be 0.0625 µg/mL (≈ 0.213 µM). In series [3], the “stärker wirksam als die cis-Verbindung” value is at least 10 fach. The same molecule came in with an LD50 in [4] of 305 mg/kg.
